Source: patent publication US20040132830A1, “Triphenylmethane kinesin inhibitors” (priority 2001, published 2004)

How the values were obtained:
A549 cells = settings: cited from earlier work
[1] = test system: Skov-3 cells (human ovarian cancer); assay: FACS analysis of cell cycle stage by DNA content (mitotic arrest); assay type: cell-based; settings: treated 24 hours, paclitaxel at 10 nM
Experimental: FACS analysis to determine cell cycle stage by measuring DNA content was performed as follows. Skov-3 cells (human ovarian cancer) were split 1:10 for plating in 10 cm dishes and grown to subconfluence with RPMI 1640 medium containing 5% fetal bovine serum (FBS). The cells were then treated with either 10 nM paclitaxel, the test compound or 0.25% DMSO (vehicle for compounds) for 24 hours. Cells were then rinsed off the plates with PBS containing 5 mM EDTA, pelleted, washed once in PBS containing 1% FCS, and then fixed overnight in 85% ethanol at 4° C. Before analysis, the cells were pelleted, washed once, and stained in a solution of 10 μg propidium iodide and 250 μg of ribonuclease (RNAse) A per milliliter at 37° C. for half an hour. Flow cytometry analysis was performed on a Becton-Dickinson FACScan, and data from 10,000 cells per sample was analyzed with Modfit software.

Row | SMILES | GI50 (A549 cells) [nM] | shift of cell population between cell cycle stages (DNA content) [1]
1 | O=c1[nH]cc(F)c(=O)[nH]1 [5-fluorouracil] | 1000 | –
2 | COc1cccc2c1C(=O)c1c(O)c3c(c(O)c1C2=O)C[C@@](O)(C(=O)CO)C[C@@H]3O[C@H]1C[C@H](N)[C@H](O)[C@H](C)O1 [doxorubicin] | 63 | –
3 | NC(=O)NO [hydroxyurea] | 500000 | –
4 | CC(=O)O[C@H]1C(=O)[C@@]2(C)[C@H]([C@H](OC(=O)c3ccccc3)[C@]3(O)C[C@H](OC(=O)[C@H](O)[C@@H](NC(=O)c4ccccc4)c4ccccc4)C(C)=C1C3(C)C)[C@]1(OC(C)=O)CO[C@@H]1C[C@@H]2O [paclitaxel] | 4 | caused a shift in the population of cells from a G0/G1 cell cycle stage (2 n DNA content) to a G2/M cell cycle stage (4 n DNA content)
